Source: US9597370B2, “Method for promoting hair growth” (INDUSTRIAL TECHNOLOGY RESEARCH INSTITUTE, priority 2013, dated 2017)
Entries after “also recorded” stand apart in the source; their conditions may differ.

Each substance was assayed on β-catenin (assay: TCF reporter assay in Human Hair Follicular Keratinocytes (HHFK) cell line). Details: 200 μM peptide, vs untreated CTL, listed as SEQ ID No: 1 peptide.
Format: cell-based
Description: (§1) FIG. 4 illustrates a schematic view of a TCF reporter assay in Human Hair Follicular Keratinocytes (HHFK) cell line. TOP represents that the reporter gene has a functional binding site where β-catenin is bound. […] CTL represents that HHFK cell line is not treated with any stimulant. iPept-2 means that HHFK cell line is treated with the SEQ ID No: 1 peptide.
(§2) The SEQ ID No. 1 peptide is treated in Human Hair Follicular Keratinocytes (HHFK) and HaCaT Keratinocyte to study the hair growth mechanism induced by the SEQ ID No. 1 peptide.
(§3) In the present disclosure, HHFK and HaCaT Keratinocyte are used as cell models for realizing the mechanism. Reporter assay is used as bioactivity assays to identify how the SEQ ID No. 1 peptide improves hair growth.

Substance	activity of β-catenin (relative luciferase activity, TOP/FOP reporter)
SPLAQAVRSSSR (a designed peptide according to experiments) [P1]	increase the activity of β-catenin; also recorded: enhance activity of β-catenin

These substances were tested on hair follicles on the dorsal skin at the refractory telogen phase (assay: mouse model of hair regeneration (sample applied on dorsal skin at refractory telogen phase)). Details: high dosage level (2000 μM) administrated on the dorsal skin once a day for 10 days; female C57BL/6 mice; negative = no hair growth.
Format: in vivo
Description: The experimental model of the present disclosure is derived from the mouse model of the hair regeneration, which is studied by Dr. Chuong in University of Southern California.
The mouse model adopts female C57BL/6 mice (about 8 weeks).
In accordance with the reports (Muller-Rover et al., 2001; Plikus et al., 2009), after the hair removal on the dorsal skin of the female C57BL/6 mice by wax or uprooting, the hair follicles enter the anagen phase on the seventh day from hair removal. At this time, the dorsal hair will regenerate during the anagen phase, which continues fourteen days. Such step synchronizes all follicles on the dorsal skin.
The hair follicles on the dorsal skin enter the refractory telogen phase through the anagen phase. The refractory telogen phase continues twenty eight days. In the present disclosure, the sample solution is applied on the dorsal skin, where the hair follicle stays at the refractory telogen phase, to observe whether the peptides are beneficial to hair growth.
In some embodiments shown in FIG. 1, after the hair removal of the dorsal skin, the new growth hair is removed again at twenty first day after the first hair removal. […] The sample solution is applied on each of the sections for 10 days. The administration of the sample solution includes, but not limited to, the injection (50 μl) and the coating (10 μl). In addition, the dosage of the sample solution includes, but not limited to, the high dosage level (2000 μM) and the low dosage level (200 μM).
In order to avoid experimental error due to manual operation, a positive control and a negative control are predetermined on two sections. […] The second section 2 is coated with high dosage level of HGP or the pharmaceutical composition for 10 days (once a day). The third section 3 is coated with low dosage level of HGP or the pharmaceutical composition for 10 days (once a day). The fourth section 4 is coated with 100% alcohol for 10 days (once a day). The fourth section 4 is regarded as the negative control. The fifth section 5 is continuously injected with the high dosage of HGP or pharmaceutical composition for 10 days (once a day). The sixth section 6 is continuously injected with the low dosage of HGP or pharmaceutical composition for 10 days (once a day). The HGP prepared for the sections is the same amino acid sequence.
HGP or pharmaceutical composition having the same as referred at Table 1 is implemented through the above-mentioned process and then the hair regeneration condition is recorded every day. Since the period of the refractory telogen phase is 28 days, it is regarded as a negative result that no hair regeneration is observed at thirtieth day after the administration of the sample solution.
The number x of the hair growth in the table 3 means that the hair regeneration condition is observed at the x'th day after the high dosage level is administrated on the dorsal skin. For instance, the number (x=5) means that the hair growth is observed at the fifth day. Furthermore, the symbol NA represents the need for further analysis. […] In addition, the “negative” represents no hair growth by using the peptide in accordance with the experimental number.

Substance	Number x (hair regeneration condition is observed at the x'th day after administration)
AGSFFSGRSSSR (a designed peptide according to experiments) [P37]	22 days
AQAGSFVRSSSR (a designed peptide according to experiments) [P35]	negative
AQAVRSSSR (a designed peptide according to experiments) [P14]	22 days
AVRSSSR (a designed peptide according to experiments) [P16]	negative
GPLAQAVRSSSR (a designed peptide according to experiments) [P27]	22 days
GSFAQAVRSSSR (a designed peptide according to experiments) [P29]	22 days
GSFGQAVRSSSR (a designed peptide according to experiments) [P30]	negative
GSFGSAVRSSSR (a designed peptide according to experiments) [P31]	22 days
GSFGSFVRSSSR (a designed peptide according to experiments) [P32]	negative
GSLAQAVRSSSR (a designed peptide according to experiments) [P28]	negative
LAQAGSVRSSSR (a designed peptide according to experiments) [P34]	negative
LAQAVRSSSR (a designed peptide according to experiments) [P13]	22 days
PLAQAVRSSSR (a designed peptide according to experiments) [P12]	22 days
QAGSFGFRSSSR (a designed peptide according to experiments) [P36]	negative
QAVRSSSR (a designed peptide according to experiments) [P15]	negative
RSSSR (a designed peptide according to experiments) [P5]	22 days
SPLAQ (a designed peptide according to experiments) [P3]	22 days
SPLAQA (a designed peptide according to experiments) [P11]	22 days
SPLAQAGSFGSF (a designed peptide according to experiments) [P23]	negative

Substance	Number x (hair regeneration condition is observed at the x'th day after administration)
SPLAQAV (a designed peptide according to experiments) [P10]	22 days
SPLAQAVGSFGS (a designed peptide according to experiments) [P22]	negative
SPLAQAVR (a designed peptide according to experiments) [P9]	19 days
SPLAQAVRGSFG (a designed peptide according to experiments) [P21]	negative
SPLAQAVRS (a designed peptide according to experiments) [P8]	negative
SPLAQAVRSGSF (a designed peptide according to experiments) [P20]	negative
SPLAQAVRSS (a designed peptide according to experiments) [P7]	22 days
SPLAQAVRSSGS (a designed peptide according to experiments) [P19]	negative
SPLAQAVRSSS (a designed peptide according to experiments) [P6]	negative
SPLAQAVRSSSG [P18]	negative
SPLAQAVRSSSR (a designed peptide according to experiments) [P1]	22 days
SPLAQAVRSSSRT (a designed peptide according to experiments) [P26]	negative
SPLAQAVRSSSRTP (a designed peptide according to experiments) [P25]	negative
SPLAQAVRSSSRTPS (a designed peptide according to experiments) [P4]	22 days
SPLAQFRSSSRG (a designed peptide according to experiments) [P33]	negative
SPLAQGSFGSFG [P24]	negative
VRSSS (a designed peptide according to experiments) [P2]	negative
VRSSSR (a designed peptide according to experiments) [P17]	negative

These substances were tested on β-catenin (assay: TCF reporter assay in HaCaT Keratinocyte cell line). Details: 200 μM peptide; HaCaT Keratinocytes; vs untreated CTL; listed as SEQ ID No: 1 peptide.
Format: cell-based
Description: as §1, with “3” for “4”, “HaCaT Keratinocyte” for “Human Hair Follicular Keratinocytes (HHFK)”, “HaCaT Keratinocytes are” for “HHFK cell line is”
as §2, §3

Substance	activity of β-catenin (relative luciferase activity, TOP/FOP reporter)
SPLAQAVRSSSR (a designed peptide according to experiments) [P1]	increase the activity of β-catenin; also recorded: enhance activity of β-catenin
